The source of these data is patent publication US8017635B2, “Phenylalkyl substituted heteroaryl derivatives” (FMC Corporation, priority 2005, dated 2011).

The data set concerns tobacco budworm (Heliothis virescens [Fabricius]). As to the kind of experiment: surface-treated diet test against tobacco budworm. The following applies: 0.25 millimolar candidate insecticide on the surface of the diet, second instar larvae, five-day exposure; for Percent Growth Inhibition: inhibition of insect weight relative to untreated controls; for Percent Mortality: mortality compared to the total number of insects infested. The format is in vivo. The method, then: Candidate insecticides were evaluated for activity against the tobacco budworm (Heliothis virescens [Fabricius]) in a surface-treated diet test.
In this test one mL of molten (65-70° C.) wheat germ-based artificial diet was pipetted into each well of a four by six (24 well) multi-well plate (ID# 430345-15.5 mm diameter×17.6 mm deep; Corning Costar Corp., One Alewife Center, Cambridge, Mass. 02140). The diet was allowed to cool to ambient temperature before treatment with the candidate insecticide.
For a determination of insecticidal activity, solutions of the candidate insecticides were prepared for testing using a Packard 204DT Multiprobe® Robotic System (Packard Instrument Company, 800 Research Parkway, Meriden, Conn. 06450), in which the robot first diluted a standard 50 millimolar DMSO solution of the candidate insecticide with a 1:1 water/acetone solution (V/V) in a ratio of 1:7 stock solution to water/acetone. The robot subsequently pipetted 40 microliters of the so-prepared solution onto the surface of the diet in each of three wells in the 24 multi-well plate. The process was repeated with solutions of seven other candidate insecticides. Once treated, the contents of the multi-well plate were allowed to dry, leaving […] of candidate insecticide on the surface of the diet, or a concentration of 0.25 millimolar. Appropriate untreated controls containing only DMSO on the diet surface were also included in this test. […]
In each well of the test plate was placed a second instar tobacco budworm larvae, weighing approximately five milligrams. After the larvae were placed in each well, the plate was sealed with clear polyfilm adhesive tape. The tape over each well was perforated to ensure an adequate air supply. The plates were then held in a growth chamber at 25° C. and 60% relative humidity for five days (light 14 hours/day).
After the five-day exposure period insecticidal activity for each rate of application of candidate insecticide was assessed as percent inhibition of insect weight relative to the weight of insects from untreated controls, and percent mortality when compared to the total number of insects infested.
The test compounds of formula I are identified by numbers that correspond to those in Table 1.

As to `ClC(Cl)=CCOc1cc(Cl)c(OCCn2cc(Cc3ccccc3)nn2)c(Cl)c1` [Compound 1-4], the “Percent Growth Inhibition” value came to 100% and the “Percent Mortality” value stood at 100%.
Consider `CC(C)Cc1cn(CCOc2c(Cl)cc(OCC=C(Cl)Cl)cc2Cl)nn1` [Compound 1-6], for which the “Percent Growth Inhibition” value is given as 49% and the “Percent Mortality” value is 0%.
Taken in the same sequence, the figures for `ClC(Cl)=CCOc1cc(Cl)c(OCCn2cc(-c3ccc(Cl)c(Cl)c3)nn2)c(Cl)c1` [Compound 1-3] were 100% and 100%.
Taken in the same sequence, the figures for `FC(F)(F)c1cccc(-c2nnn(CCOc3c(Cl)cc(OCC=C(Cl)Cl)cc3Cl)n2)c1` [Compound 7-54, 5-(3,3-dichloroprop-2-enyloxy)-1,3-dichloro-2(-2-(5-(3-trifluoromethylphenyl)(1,2,3,4-tetraazol-2-yl))ethoxy)benzene] were 100% and 100%.
For `FC(F)(F)c1cccc(-c2noc(COc3c(Cl)cc(OCC=C(Cl)Cl)cc3Cl)n2)c1` [Compound 14-54, 5-(3,3-dichloroprop-2-enyloxy)-1,3-dichloro-2((3-(3-trifluoromethylphenyl)(1,2,4-oxadiazol-5-yl))methoxy)benzene], the “Percent Growth Inhibition” value stood at 100% and the “Percent Mortality” value was 100%.
For `CN(C)c1ccc(-c2cn(CCOc3c(Cl)cc(OCC=C(Cl)Cl)cc3Cl)nn2)cc1` [Compound 1-16], the “Percent Growth Inhibition” value is recorded as 91% and the “Percent Mortality” value is given as 67%.
Take `ClC(Cl)=CCOc1cc(Cl)c(OCCn2cc(-c3cccc(Cl)c3)nn2)c(Cl)c1` [Compound 1-12]: the “Percent Growth Inhibition” value was 100% and the “Percent Mortality” value stood at 100%.
Regarding `FC(F)(F)c1ccc(-c2cn(CCCOc3c(Cl)cc(OCC=C(Cl)Cl)cc3Cl)nn2)cc1` [Compound 1-9], the “Percent Growth Inhibition” value came out at 100% and the “Percent Mortality” value was 100%.
Consider `CC(C)(C)c1cn(CCOc2c(Cl)cc(OCC=C(Cl)Cl)cc2Cl)nn1` [Compound 1-7], for which the “Percent Growth Inhibition” value amounted to 100% and the “Percent Mortality” value is reported as 100%.
Take `FC(F)(F)c1ccc(-c2n[nH]c(CCOc3c(Cl)cc(OCC=C(Cl)Cl)cc3Cl)n2)cc1` [Compound 8-2, 5-(3,3-dichloroprop-2-enyloxy)-1,3-dichloro-2-(2-(3-(4-trifluoromethylphenyl)(1,2,4-triazolyl))ethoxy)benzene]: the “Percent Growth Inhibition” value is listed as 100% and the “Percent Mortality” value came out at 100%.
As to `Fc1ccc(-c2cn(CCOc3c(Cl)cc(OCC=C(Cl)Cl)cc3Cl)nn2)c(F)c1` [Compound 1-15], the “Percent Growth Inhibition” value amounted to 100% and the “Percent Mortality” value is listed as 100%.
For `ClC(Cl)=CCOc1cc(Cl)c(OCCn2cc(-c3ccc(Cl)cc3Cl)nn2)c(Cl)c1` [Compound 1-8], the “Percent Growth Inhibition” value amounted to 33% and the “Percent Mortality” value is 0%.
The corresponding values for `FC(F)(F)c1cccc(-c2cn(CCOc3c(Cl)cc(OCC=C(Cl)Cl)cc3Cl)nn2)c1` [Compound 1-14] are 100% and 100%.
As for `ClC(Cl)=CCOc1cc(Cl)c(OCCn2cnc(-c3ccccc3)c2)c(Cl)c1` [Compound 2-1], the “Percent Growth Inhibition” value is reported as 100% and the “Percent Mortality” value is recorded as 100%.
Regarding `FC(F)(F)c1ccc(-c2cn(CCOc3c(Cl)cc(OCC=C(Cl)Cl)cc3Cl)nn2)cc1` [Compound 1-1], the “Percent Growth Inhibition” value turned out to be 100% and the “Percent Mortality” value amounted to 100%.
On to `FC(F)(F)c1ccc(-c2cn(CCOc3c(Cl)cc(OCC=C(Cl)Cl)cc3Cl)nn2)nc1` [Compound 1-18], for which the “Percent Growth Inhibition” value is given as 100% and the “Percent Mortality” value was 100%.
As to `ClC(Cl)=CCOc1cc(Cl)c(OCCn2cc(-c3ccccc3Cl)nn2)c(Cl)c1` [Compound 1-11], the “Percent Growth Inhibition” value is on record as 100% and the “Percent Mortality” value came out at 100%.
With `ClC(Cl)=CCOc1cc(Cl)c(OCCn2nnc(-c3ccccc3Cl)n2)c(Cl)c1` [Compound 7-55], the “Percent Growth Inhibition” value stood at 100% and the “Percent Mortality” value is on record as 100%.
`ClC(Cl)=CCOc1cc(Cl)c(OCCn2cc(CC3CCCC3)nn2)c(Cl)c1` [Compound 1-5]: the “Percent Growth Inhibition” value was 100% and the “Percent Mortality” value is recorded as 100%.
`FC(F)(F)c1ccc(-c2nnn(CCOc3c(Cl)cc(OCC=C(Cl)Cl)cc3Cl)n2)cc1` [Compound 7-2]: the “Percent Growth Inhibition” value is reported as 100% and the “Percent Mortality” value is recorded as 100%.
`FC(F)(F)c1ccc(OCc2cn(CCOc3c(Cl)cc(OCC=C(Cl)Cl)cc3Cl)nn2)cc1` [Compound 1-69]: the “Percent Growth Inhibition” value came to 71% and the “Percent Mortality” value was determined as 17%.
Take `ClC(Cl)=CCOc1cc(Cl)c(OCCn2cc(-c3ccc(Oc4ccccc4)cc3)nn2)c(Cl)c1` [Compound 1-17]: the “Percent Growth Inhibition” value is 100% and the “Percent Mortality” value is 67%.
Turning to `C[Si](C)(C)c1cn(CCCOc2c(Cl)cc(OCC=C(Cl)Cl)cc2Cl)nn1` [Compound 1-19], the “Percent Growth Inhibition” value was 100% and the “Percent Mortality” value amounted to 100%.
For the compound “5-(3,3-dichloroprop-2-enyloxy)-1,3-dichloro-2-(2-(4-(4-chlorophenyl)-1,2,3-triazolyl)ethoxy)benzene [Compound 1-2]”, the “Percent Growth Inhibition” value is reported as 100% and the “Percent Mortality” value is 100%.
As for `ClC(Cl)=CCOc1cc(Cl)c(OCCn2nnc(-c3ccccc3)n2)c(Cl)c1` [Compound 7-1], the “Percent Growth Inhibition” value is 100% and the “Percent Mortality” value was 100%.
For the compound `ClC(Cl)=CCOc1cc(Cl)c(OCCn2nnc(-c3cccc(Cl)c3)n2)c(Cl)c1` [Compound 7-56], the “Percent Growth Inhibition” value turned out to be 100% and the “Percent Mortality” value was 100%.
